Measured values as given in patent EP0559700B1, “NOVEL PILOCARPINE DERIVATIVES AND PROCESS FOR THEIR PREPARATION” (Santen Oy, priority 1990, dated 1992).
Like-named read-outs stand apart in the source and are kept apart here.

Assays:
[1] = Lipophilicity: partition coefficient (octanol-buffer) and capacity factor by RP-HPLC; assay type: physicochemical; details: for chromatographic logP: reverse phase HPLC, 22°C, read-out: Capacity factor (22°C) k' (converted)
Text: The lipophilicity of the compounds were studied by determining the partition coefficients (P) of the compounds at a pH of 7.40. The measurements were made either in an octanol-buffer mixture by determining the concentration of the compound to be studied in the buffer phase by HPLC. The partition coefficients of the very lipophilic compounds were, however, determined by reverse phase (RP) liquid chromatography (HPLC) from the retention time (Beckmann 116 pump and 166 UV detector; Marathon autom. sample feeder). […] From the results it can be seen that the compounds of the invention are considerably more lipophilic than the pilocarpine.

[2] = pKa-value determination by titration in a water-ethanol mixture (50%-50%); assay type: physicochemical; details: water-ethanol 50:50; titration in water-ethanol mixture (50%-50%)
[3] = Corneal permeability in a diffusion chamber; assay type: in vitro ADME, rabbit
Text: The corneal permeability of pilocarpine hydrochloride and its most promising prodrug derivatives as evaluated from the tests described above were studied in a diffusion chamber, wherein the migration of the compound from the delivering phase (epithelium side) thorugh the cornea to the acceptor side (endothelium side) of the diffusion chamber. In the study, rabbit eye cornea was used. From the samples taken from the acceptor side of the diffusion chamber, both the concentration of the prodrug and the liberated drug were determined in the acceptor phase with HPLC. Thus the rate of degradation of the prodrug in the cornea was determined. The permeability coefficients (Papp, cm/s) calculated from the permeability rate (μmol/min), their […] deviations (RSD) and the number of tests, are given in the Table II below.

[4] = Stability of the compounds: buffer hydrolysis (half-times, shelf-life); assay type: physicochemical
Procedure: The stability of the test compounds were tested with buffer hydrolyses. The ionic strength (µ) of the buffers was 0.5, the pH-values used 4.2, 6.0, 7.4 and 9.0 and the temperatures used 37°C, 50 °C, 60 °C and 70 °C.
The half-times T½ calculated on basis of the degradation constant k obtained for each studied compound (T½=0.693/k; k = 2.303 x kk, wherein kk is the angular coefficient of the plot which illustrates the logarithm of the remaining ester as a function of time) in a buffer solution of said pH, are indicated in the Table I below, which values refer to half-times at 37°C.
The storage stability of the derivatives under different storage conditions may be estimated by determining the degradation constants at different temperatures and calculating the degradation constant k at the desired temperature from the equation of the plot corresponding to the Arrhenius equation (1), wherein log k is given as a function of [1/T]. Log k = Log A -(Ea)/(2.303R)x(1)/(T) [formula]
From the degradation constant (k) obtained at the desired temperature the shelf-life-time t10% (t10% = 0.104/k) which indicates the time during which 10% of the drug has degraded may be calculated. By way of example it may be mentioned that the t10%-time of O,O'-dipropionyl (1,4-xylylene) bispilocarpate at 4 °C is almost 500 days.

[5] = Enzyme hydrolysis in plasma/buffer pH 7.4 mixture (80%-20%); assay type: in vitro ADME; details: for half-life: 80% plasma/buffer
Procedure: The half-times of enzyme hydrolysis of the novel bispilocarpates according to the invention and of known pilocarpic acid diesters were determined in a plasma/buffer pH 7.4-mixture (80%-20%) at 37°C. The degradation constants (k) for the compounds tested and determined from the plot showing the logarithm of remaining diester as a function of time and the half-lives T½ are shown in the Table II below. From the results it may be seen that in […] the stable test compound degrades under the influence of an enzyme (esterase) to a O,O'-dihydrogen bispilocarpate intermediate, which spontaneously degrades at pH 7.40 to pilocarpine. Consequently the effect of the bispilocarpate intermediate on the rate of formation of pilocarpine is very significant. The formation of pilocarpine was almost complete irrespective of the epimerization possibility of the intermediate. The amount of isopilocarpine formed varied from 0 to 10%, as also the pilocarpine formed epimerized, if the duration of hydrolysis was very long.

[6] = Lipophilicity: partition coefficient (octanol-buffer) and capacity factor by RP-HPLC; assay type: physicochemical; details: pH 5.0
[7] = administered locally as eyedrops; cited from earlier work
[8] = rabbit eye cornea, diffusion chamber, epithelium side to endothelium side, read-out: Permeability coefficient Papp
[9] = buffer pH 6.00, ionic strength 0.5, 37°C, read-out: Half-times in buffers at 37°C, T½, pH 6.00 (converted)
[10] = buffer pH 9.00, ionic strength 0.5, 37°C, read-out: Half-times in buffers at 37°C, T½, pH 9.00 (converted)
[11] = pH 4.2, buffer pH 4.20, ionic strength 0.5, 37°C, read-out: Half-times in buffers at 37°C, T½, pH 4.20 (converted)
[12] = pH 7.4, buffer pH 7.40, ionic strength 0.5, 37°C, read-out: Half-times in buffers at 37°C, T½, pH 7.40 (converted)
[13] = plasma/buffer pH 7.4 (80%-20%), 37°C, read-out: half-times (T½) in plasma (80%), 37°C
[14] = plasma/buffer pH 7.4 (80%-20%), 37°C
[15] = determined from the equation log k'= 0.182 Log P - 0.4086 (RP-HPLC retention)
[16] = buffer, pH 4.2, 50 °C, pH 4.20, read-out: Chemical hydrolysis t½, pH 4.20 (converted)
[17] = buffer, pH 7.4, 50 °C, pH 7.40, read-out: Chemical hydrolysis t½, pH 7.40 (converted)
[18] = buffer, 50 °C, pH 6.00, read-out: Chemical hydrolysis t½, pH 6.00 (converted)

Row | chromatographic logP ([1]; rp-hplc) | pKa [2] | Papp [3, 8] | half-life [4, 9] | half-life [4, 10] | half-life [4, 11] | half-life [4, 12] | half-life [5, 13] | Degradation coefficient (k) in plasma (80%), 37°C [5, 14] | Structure (SMILES) | other results
1 | 0.146 | 6.03 | – | – | – | – | – | – | – | CC[C@H](C(=O)OCc1ccc(COC(=O)[C@@H](CC)[C@H](COC(C)=O)Cc2cncn2C)cc1)[C@H](COC(C)=O)Cc1cncn1C [Example 9, O,O'-Diacetyl (1,4-xylylene) bispilocarpate] | Partition coefficient log P ([1]; pH 7.4): 3.0432^1; Capacity factor (22°C) k' ([1]; rp-hplc): 1.3987; Papp ([3]; rabbit): 9.3 ×10⁻⁶ cm/s; half-life ([4]; buffer, pH 4.2): 165 days; half-life ([4]; buffer, pH 6): 48.4 days; half-life ([4]; buffer, pH 7.4): 11.4 days; half-life ([4]; buffer, pH 9): 1.42 days; half-life ([5]; pH 7.4): 0.00625 days; Degradation coefficient (k) in plasma (80%), 37°C ([5]; pH 7.4): 0.0737 min⁻¹
2 | 0.362 | 5.8 | 30.5 ×10⁻⁶ cm/s | 50.6 days | 1.96 days | 91.8 days | 16.7 days | 0.00417 days | 0.1184 min⁻¹ | CCC(=O)OC[C@H](Cc1cncn1C)[C@H](CC)C(=O)OCc1ccc(COC(=O)[C@@H](CC)[C@H](COC(=O)CC)Cc2cncn2C)cc1 [Example 10, O,O'-Dipropionyl (1,4-xylylene) bispilocarpate] | shelf-life-time t10% (time during which 10% of the drug has degraded) ([4]; at 4 °C, calculated from the Arrhenius plot): ~500 days
3 | 0.603 | 6 | 21.5 ×10⁻⁶ cm/s | 46.4 days | 5.71 days | 250 days | 7.38 days | 0.00764 days | 0.06149 min⁻¹ | CCCC(=O)OC[C@H](Cc1cncn1C)[C@H](CC)C(=O)OCc1ccc(COC(=O)[C@@H](CC)[C@H](COC(=O)CCC)Cc2cncn2C)cc1 [Example 11, O,O'-Dibutyryl (1,4-xylylene) bispilocarpate] | Partition coefficient log P [1, 15]: 5.5604^2
4 | 0.868 | 6 | 18.2 ×10⁻⁶ cm/s | – | 0.292 days | – | – | 0.00833 days | 0.05734 min⁻¹ | CCCCC(=O)OC[C@H](Cc1cncn1C)[C@H](CC)C(=O)OCc1ccc(COC(=O)[C@@H](CC)[C@H](COC(=O)CCCC)Cc2cncn2C)cc1 [Example 12, O,O'-Divaleryl (1,4-xylylene) bispilocarpate] | Partition coefficient log P [1, 15]: 7.0165^2
5 | 0.392 | 6 | 15.8 ×10⁻⁶ cm/s | 352 days | 14.1 days | 2640 days | 148 days | 0.00972 days | 0.04998 min⁻¹ | CC[C@H](C(=O)OCc1ccc(COC(=O)[C@@H](CC)[C@H](COC(=O)C2CC2)Cc2cncn2C)cc1)[C@H](COC(=O)C1CC1)Cc1cncn1C [Example 13, O,O'-Dicyclopronylcarbonyl (1,4-xylylene) bispilocarpate] | Partition coefficient log P ([1]; determined with an octanol-buffer-mixture, pH 7.40, 22 °C): 4.2015^1
6 | – | 6 | – | – | – | – | – | 0.0104 days | – | CC[C@H](C(=O)OCCCCCCOC(=O)[C@@H](CC)[C@H](COC(=O)C1CC1)Cc1cncn1C)[C@H](COC(=O)C1CC1)Cc1cncn1C [Example 20, O,O'-Dicyclopropylcarbonyl (1,6-hexylene) bispilocarpate] | logD [6]: 0.88; half-life [4, 16]: 134 days; half-life [4, 17]: 27.7 days; half-life [4, 18]: 142 days
7 | – | – | – | – | – | – | – | 0.00903 days | – | CC[C@H](C(=O)OCCCCCOC(=O)[C@@H](CC)[C@H](COC(=O)C1CC1)Cc1cncn1C)[C@H](COC(=O)C1CC1)Cc1cncn1C [Example 21, O,O'-Dicyclopropylcarbonyl (1,5-pentylene) bispilocarpate] | logD [6]: 0.401; half-life [4, 16]: 193 days; half-life [4, 17]: 23 days; half-life [4, 18]: 98.7 days
8 | -0.392 | – | 4.1 ×10⁻⁶ cm/s | – | – | – | – | – | – | CC[C@@H]1C(=O)OC[C@@H]1Cc1cncn1C [Pilocarpine, (3S-cis)-3-ethyl-dihydro-4-[(1-methyl-1H-imidazol-5-yl)methyl]-2(3H)-furanone] | pilocarpine dose absorbed by the eye [7]: about 1%; pilocarpine dose absorbed in the blood stream [7]: about 70%
9 | – | – | 11.7 ×10⁻⁶ cm/s | 144 days | 3.29 days | 320 days | 22.8 days | 0.0111 days | 0.04353 min⁻¹ | CC[C@H](C(=O)OCc1ccccc1)[C@H](COC(C)=O)Cc1cncn1C [acetyl, benzyl, reference compound] | –
10 | – | – | 8.7 ×10⁻⁶ cm/s | 203 days | 4.62 days | 444 days | 85.1 days | 0.0125 days | 0.038 min⁻¹ | CC[C@H](C(=O)OCc1ccccc1)[C@H](COC(=O)c1ccccc1)Cc1cncn1C [benzoyl, benzyl, reference compound] | –
11 | – | – | 14.3 ×10⁻⁶ cm/s | 222 days | 3.92 days | 90.8 days | 31.2 days | 0.00417 days | 0.108 min⁻¹ | CCC(=O)OC[C@H](Cc1cncn1C)[C@H](CC)C(=O)OCc1ccccc1 [propionyl, benzyl, reference compound] | –
12 | – | – | 11.5 ×10⁻⁶ cm/s | – | 12.6 days | 356 days | 48.7 days | 0.00625 days | 0.07876 min⁻¹ | CCCCC(=O)OC[C@H](Cc1cncn1C)[C@H](CC)C(=O)OCc1ccccc1 [valeryl, benzyl, reference compound] | –
